Ki and Kb data for 33 compounds are collected here from US12187727B2, “Methods for antagonizing a melanocortin 4 receptor” (Pfizer Inc., priority 2020, dated 2025).

One experiment concerns the target hMC4R (Homo sapiens (Human), UniProt P32245). The experiment in a line: In vitro binding affinity assay using hMC4R (radioligand competition binding, [125I]-(Nle4, D-Phe7)-α-MSH). The note with it: geometric mean. Here is the method:
Example AA. In Vitro Binding Affinity Assay Using hMC4R
The binding affinity of test compounds at the […] (hMC4R) was assessed using a radioligand competition binding assay. […] Cell membranes were bulked and frozen until the assay was performed.
Compounds were solubilized in 100% dimethyl sulfoxide (DMSO) to a concentration of 30 mM. A 10-point intermediate dilution series using half log dilutions was created in 100% DMSO with a top concentration of 0.03 mM. […] The final compound range in the assay was 300 nM to 0.01 nM with a final DMSO concentration of 1%. […] The exact concentration of radioligand used for each experiment was determined by liquid scintillation counting and adjusted if necessary.
Frozen hMC4R cell membranes were thawed and Dounce homogenized. Homogenates were resuspended in assay buffer to a concentration of 2 μg per well. […] The plates were incubated for 2 hours at room temperature.
The raw data (expressed as counts per minute) were analyzed using ActivityBase (IDBS Data Management Software). […] Equilibrium dissociation constant for inhibitor of ligand and receptor interaction (Ki) values were then calculated from the IC50 values using the Cheng-Prusoff equation: Ki=IC50/(1+([L]/Kd)), where [L] is the concentration of the radioligand used in the experiment and Kd is the affinity of the radioligand (determined in separate saturation experiments).

In experiment [1] the target is human Melanocortin-4 receptor (MC4R) (Homo sapiens (Human), UniProt P32245). The experiment in a line: Functional in vitro MC4R antagonist potency assay (cAMP HTRF in CHO cells). Format: cell-based. The gist of the method:
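CHO cells stably expressing human MC4R were preincubated 30 min at 37 °C with compound ([…], 0.1% DMSO), then stimulated 30 min with EC80 αMSH (200 nM). Intracellular cAMP quantified by HTRF competitive immunoassay and normalized to agonist-stimulated and vehicle-only wells.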
For orientation: TR-FRET usually uses a lanthanide donor and a delayed reading to cut background.

Where [2] appears, read: read-out: Ki (nM) geometric mean.
The mark [3] stands for this setting: read-out: Kb (nM) Antagonist geometric mean.
[4] abbreviates: human MC4R in CHO cells, cAMP HTRF, 200 nM aMSH challenge, Kb from IC50 by Leff-Dougall equation, geometric mean, read-out: Kb (nM) Antagonist geometric.

Like-named read-outs stand apart in the source and are kept apart here.

Chain of hMC4R (P32245 whole entry): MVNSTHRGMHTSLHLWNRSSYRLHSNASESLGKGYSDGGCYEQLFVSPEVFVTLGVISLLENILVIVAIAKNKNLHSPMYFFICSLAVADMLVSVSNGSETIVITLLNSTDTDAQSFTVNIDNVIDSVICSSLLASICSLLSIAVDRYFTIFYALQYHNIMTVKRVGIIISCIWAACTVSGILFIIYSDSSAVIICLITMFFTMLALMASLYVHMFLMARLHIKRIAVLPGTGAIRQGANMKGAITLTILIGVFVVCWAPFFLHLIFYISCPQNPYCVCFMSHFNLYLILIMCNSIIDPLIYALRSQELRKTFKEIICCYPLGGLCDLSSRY
Chain of human Melanocortin-4 receptor (MC4R) (P32245 whole entry): as above

Turning to `COc1cc(OC)cc([C@@H](C)C(=O)N2CC[C@@]3(CCc4ccc(C)nc4N3)C2)c1` (single isomer, unassigned) [Example 96], the Ki at hMC4R (setting [2]) worked out at 4.1 nM. In addition, the Kb in experiment [1] (setting [3]) turned out to be 11 nM.
Take `COc1cc([C@@H](C)C(=O)N2CCC3(CCc4cc(-c5nnn(C)n5)c(C)nc4N3)C2)c(Cl)cn1` (single isomer, unassigned) [Example 2]: the inhibitory constant (Ki) on hMC4R (setting [2]) turned out to be 4.5 nM. Besides, the antagonist equilibrium constant (Kb) in experiment [1] (setting [3]) stood at 1.2 nM.
In the same order, the values of `Cc1nc2c(cc1-c1ncccn1)CC[C@@]1(CCN(C(=O)[C@H](C)c3cc(OC(F)F)ncc3F)C1)N2` (single isomer, unassigned) [Example 78] are 0.62 nM and 1.2 nM.
In the same order, the values of `COc1cc(OC(F)F)cc([C@@H](C)C(=O)N2CC[C@@]3(CCc4cc(-c5ncccn5)c(C)nc4N3)C2)c1` (single isomer, unassigned) [Example 62] are 0.15 nM and 0.08 nM.
The like results for `Cc1nc2c(cc1-c1ncccn1)CC[C@@]1(CCN(C(=O)[C@H](C)c3ccc(Cl)cc3Cl)C1)N2` (single isomer, unassigned) [Example 35] were, in that order, 82 nM and more than 95 nM.
As for `COc1cc([C@@H](C)C(=O)N2CC[C@@]3(CCc4ccc(C)nc4N3)C2)nc(C)n1` (single isomer, unassigned) [Example 26, 2-(6-methoxy-2-methylpyrimidin-4-yl)-1-(7-methyl-3,4-dihydro-1H-spiro[1,8-naphthyridine-2,3′-pyrrolidin]-1′-yl)propan-1-one], the inhibition constant (Ki) at hMC4R (setting [2]) was found to be 210 nM. Moreover, the Kb in experiment [1] (setting [3]) is more than 97 nM.
In the same order, the values of `COc1cc([C@@H](C)C(=O)N2CC[C@@]3(CCc4ccc(C)nc4N3)C2)nc(C)n1` (single isomer, unassigned) [Example 25, 2-(6-methoxy-2-methylpyrimidin-4-yl)-1-(7-methyl-3,4-dihydro-1H-spiro[1,8-naphthyridine-2,3′-pyrrolidin]-1′-yl)propan-1-one] are 220 nM and more than 97 nM.
Consider `COc1ncc(F)c([C@@H](C)C(=O)N2CC[C@@]3(CCc4cc(-c5nc6ccccn6n5)c(C)nc4N3)C2)n1` (single isomer, unassigned) [Example 132], for which the inhibition constant Ki on hMC4R (read-out: Ki (nM) geometric) turned out to be 3.4 nM. The Kb in experiment [1] (setting [4]) amounted to 35 nM.
In the same order, the values of `COc1cc([C@@H](C)C(=O)N2CCC3(CCc4cc(-c5nc(OC)n(C)n5)c(C)nc4N3)C2)c(Cl)cn1` (single isomer, unassigned) [Example 114] are 0.48 nM and 0.25 nM.
For the compound `COc1cc([C@@H](C)C(=O)N2CC[C@@]3(CCc4ccc(C)nc4N3)C2)nc(C)n1` (single isomer, unassigned) [Example 24, 2-(6-methoxy-2-methylpyrimidin-4-yl)-1-(7-methyl-3,4-dihydro-1H-spiro[1,8-naphthyridine-2,3′-pyrrolidin]-1′-yl)propan-1-one], the Ki on hMC4R (setting [2]) is 77 nM. The Kb in experiment [1] (setting [3]) is more than 97 nM.
As for `Cc1nc2c(cc1-c1nnn(C)n1)CC[C@@]1(CCN(C(=O)[C@H](C)c3ccc(OC(F)F)nc3)C1)N2` (single isomer, unassigned) [Example 108], the inhibition constant (Ki) on hMC4R (read-out: Ki (nM) geometric) turned out to be 1.2 nM. The Kb in experiment [1] (setting [4]) stood at 7.1 nM.
For the compound `Cc1nc2c(cc1-c1ncccn1)CC[C@@]1(CCN(C(=O)[C@H](C)c3cc(F)c(F)c(F)c3)C1)N2` (single isomer, unassigned) [Example 55], at hMC4R (setting [2]), the inhibition constant (Ki) stood at 58 nM. In experiment [1] (setting [3]), the Kb is more than 95 nM.
`Cc1nc2c(cc1-c1ncccn1)CC[C@@]1(CCN(C(=O)C(C)c3ccc(C(F)(F)F)cc3)C1)N2` (single isomer, unassigned) [Example 7]: the inhibition constant Ki at hMC4R (setting [2]) was 0.62 nM. In addition, the Kb in experiment [1] (setting [3]) was determined as 8.1 nM.
In the case of `Cc1nc(OC(F)F)cc([C@@H](C)C(=O)N2CC[C@@]3(CCc4cc(-c5ncccn5)c(C)nc4N3)C2)n1` (single isomer, unassigned) [Example 45], on hMC4R (setting [2]), the inhibition constant Ki stood at 0.95 nM. The Kb in experiment [1] (setting [3]) is 0.76 nM.
In the case of `COc1cc([C@@H](C)C(=O)N2CC[C@@]3(CCc4cc(-c5nc(C(F)(F)F)n(C)n5)c(C)nc4N3)C2)c(F)cn1` (single isomer, unassigned) [Example 93], the Ki at hMC4R (setting [2]) was determined as 16 nM. Moreover, the antagonist equilibrium constant (Kb) in experiment [1] (setting [3]) turned out to be 4.1 nM.
With `COc1cc([C@@H](C)C(=O)N2CC[C@@]3(CCc4cc(-c5nc(OC)n(C)n5)c(C)nc4N3)C2)c(F)cn1` (single isomer, unassigned) [Example 113], the Ki on hMC4R (read-out: Ki (nM) geometric) was 17 nM. In addition, the Kb in experiment [1] (setting [4]) stood at 8 nM.
`COc1cc([C@@H](C)C(=O)N2CC[C@@]3(CCc4cc(-c5nnn(C)n5)c(C)nc4N3)C2)nc(C(F)F)n1` (single isomer, unassigned) [Example 128]: the Ki at hMC4R (read-out: Ki (nM) geometric) worked out at 10 nM. For the same compound, the Kb in experiment [1] (setting [4]) stood at 3.8 nM.
Take `COc1cc([C@@H](C)C(=O)N2CCC3(CCc4cc(-c5cnn(C)c5)c(C)nc4N3)C2)c(F)cn1` (single isomer, unassigned) [Example 16]: the inhibition constant (Ki) on hMC4R (setting [2]) turned out to be 0.36 nM. Also, the Kb in experiment [1] (setting [3]) amounted to 0.88 nM.
In the same order, the values of `Cc1nc2c(cc1-c1ncccn1)CC[C@@]1(CCN(C(=O)[C@H](C)c3cc(OC(F)(F)F)ncc3F)C1)N2` (single isomer, unassigned) [Example 76] are 2.2 nM and 9 nM.
The like results for `Cc1nc2c(cc1-c1ncccn1)CC[C@@]1(CCN(C(=O)[C@H](C)c3cc(OC(F)F)ncc3Cl)C1)N2` (single isomer, unassigned) [Example 60] were, in that order, 0.54 nM and 0.18 nM.
The like results for `Cc1nc2c(cc1-c1ncccn1)CC[C@@]1(CCN(C(=O)[C@H](C)c3ccc(F)c(F)c3)C1)N2` (single isomer, unassigned) [Example 51] were, in that order, 120 nM and more than 110 nM.
As to `COc1ncc(F)c([C@@H](C)C(=O)N2CC[C@@]3(CCc4cc(-c5nnn(C)n5)c(C)nc4N3)C2)n1` (single isomer, unassigned) [Example 135], the Ki at hMC4R (read-out: Ki (nM) geometric) came out at 3.8 nM. Besides, the antagonist equilibrium constant (Kb) in experiment [1] (setting [4]) was 10 nM.
In the same order, the values of `COc1cc([C@@H](C)C(=O)N2CC[C@@]3(CCc4cc(-c5cnn(C)c5)c(C)nc4N3)C2)c(Cl)cn1` (single isomer, unassigned) [Example 105] are 54 nM and 16 nM.
As for `COc1cc([C@@H](C)C(=O)N2CCC3(CCc4cc(-c5nnn(C)n5)c(C)nc4N3)C2)c(Cl)cn1` (single isomer, unassigned) [Example 1], on hMC4R (setting [2]), the Ki was determined as 0.21 nM. Besides, the Kb in experiment [1] (setting [3]) came to 0.049 nM.
For `COc1nccc([C@@H](C)C(=O)N2CC[C@@]3(CCc4cc(-c5ncccn5)c(C)nc4N3)C2)c1F` (single isomer, unassigned) [Example 58], the inhibition constant (Ki) at hMC4R (setting [2]) came to 190 nM. Besides, the Kb in experiment [1] (setting [3]) was more than 62 nM.
In the same order, the values of `Cc1nc2c(cc1-c1ncccn1)CC[C@@]1(CCN(C(=O)[C@H](C)c3cc(F)c(F)cc3F)C1)N2` (single isomer, unassigned) [Example 52] are 0.68 nM and 2.6 nM.
The like results for `COc1cc([C@@H](C)C(=O)N2CC[C@@]3(CCc4cc(-c5nc(C(F)(F)F)n(C)n5)c(C)nc4N3)C2)c(Cl)cn1` (single isomer, unassigned) [Example 95] were, in that order, 86 nM and 7.5 nM.
For the compound `COc1cc([C@@H](C)C(=O)N2CC[C@@]3(CCc4cc(-c5nc6ccccn6n5)c(C)nc4N3)C2)c(F)cn1` [Example 111, (2R)-2-(5-fluoro-2-methoxypyridin-4-yl)-1-[(2S)-7-methyl-6-([1,2,4]triazolo[1,5-a]pyridin-2-yl)-3,4-dihydro-1H-spiro[1,8-naphthyridine-2,3′-pyrrolidin]-1′-yl]propan-1-one], at hMC4R (read-out: Ki (nM) geometric), the Ki turned out to be 0.25 nM. In experiment [1] (setting [4]), the antagonist dissociation constant (Kb) was determined as 0.47 nM.
Take `Cc1nc2c(cc1-c1ncccn1)CC[C@@]1(CCN(C(=O)[C@H](C)c3ccc(OC(F)(F)F)cc3)C1)N2` (single isomer, unassigned) [Example 48]: the inhibitory constant (Ki) at hMC4R (setting [2]) was found to be 0.36 nM. For the same compound, in experiment [1] (setting [3]), the antagonist equilibrium constant (Kb) was 1.8 nM.
As to `COc1cc([C@@H](C)C(=O)N2CC[C@@]3(CCc4cc(-c5nc6ccccn6n5)c(C)nc4N3)C2)nc(C(F)F)n1` (single isomer, unassigned) [Example 129], the inhibitory constant (Ki) on hMC4R (read-out: Ki (nM) geometric) was 0.44 nM. Also, in experiment [1] (setting [4]), the Kb worked out at 1.5 nM.
For the compound `Cc1nc2c(cc1-c1ncccn1)CC[C@@]1(CCN(C(=O)[C@H](C)c3cc(C(F)(F)F)ncc3F)C1)N2` (single isomer, unassigned) [Example 80], on hMC4R (setting [2]), the Ki was found to be 8 nM. Further, the Kb in experiment [1] (setting [3]) was 28 nM.
In the same order, the values of `Cc1nc2c(cc1-c1ncccn1)CC[C@@]1(CCN(C(=O)[C@H](C)c3ccc(OC(F)(F)F)cc3)C1)N2` (single isomer, unassigned) [Example 49] are 64 nM and more than 95 nM.
The like results for `COc1cc([C@@H](C)C(=O)N2CC[C@@]3(CCc4cc(-c5ncccn5)c(C)nc4N3)C2)c(C(F)F)cn1` (single isomer, unassigned) [Example 36] were, in that order, 0.52 nM and 0.19 nM.

Usually Ki stands for the dissociation constant of the complex between target and ligand, obtained from inhibition or displacement. A word on the Kb: it is the affinity of an antagonist, worked out from how it opposes an agonist.
